Measurements as given in patent US4801588A, “Tetracyclic indole derivatives for treating hypertension” (Farmitalia Carlo Erba S.p.A., priority 1986, dated 1989).

How the values were obtained:
mean blood pressure = test: Antihypertensive activity: mean blood pressure (MBP) after oral administration in SHR rats, intraarterial measurement; format: in vivo, rat (SHR); conditions: single dose, limits P = 0.05, calculated from dose-response regression line; for ED25 and limits (dose lowering mean blood pressure of 25 mmHg): p.o.
Method: Intrarterial measurements of mean blood pressure (MBP) were performed through catheters (PE 50, Clay Adams) implanted in the rat (SHR) right carotid artery under alothane anesthesia. Twenty four hours after surgery, the animals were placed in Ballman cages and the arterial cannula was connected via a pressure transducer to a Beckman blood pressure recorder for continuous monitoring of mean blood pressure.
MBP was recorded before the oral administration (basal values) and 15-30-60-120-240 minutes till 24 hours after treatment. Groups of 7-8 rats were orally treated with a single dose of the test compound or vehicle, methocel 0.5% w/v (0.2 ml/100 g b.w.). The ED25 was calculated for each compound from the dose-response regression line.
As reference standard drug, captopril was also tested.

male mice = test: Orientative toxicity after oral treatment in male mice, seven days observation; format: in vivo; conditions: p.o., observed for seven days, 10080 min
Text: (§1) Three male mice for each group were orally treated with drugs at different dose levels for the determination of orientative toxicity.

[1] = as above; format: in vivo; conditions: mouse, in vivo, po, observed for seven days
Text: as §1

Row | Molecule | ED25 and limits (dose lowering mean blood pressure of 25 mmHg) (mean blood pressure) | LD50 (male mice) | ED (25 mmHg) (mean blood pressure; Rattus norvegicus, po, read-out: ED25 and limits (dose lowering mean blood pressure of 25 mmHg)) | LD50 at 168 h [1]
1 | 1-[[5-(10→9)abeo-9,10-didehydro-6-methylergolin-8β-yl]methyl]- 2,4-(1H,3H)-pyrimidinedione-N6 -oxide [FCE 24778] | 0.402 (0.297-0.511) mg.kg^-1 | > 800 mg/kg | – | –
2 | 1-[[5-(10→9)abeo-9,10-didehydro-6-methylergolin-8β-yl]methyl]- 2,4-(1H,3H)-pyrimidinedione [FCE 24379] | 1.229 (0.661-1.845) mg.kg^-1 | > 800 mg/kg | – | –
3 | C[N+]1([O-])C[C@H](CN2CC(=O)NC2=O)C2=Cc3cccc4[nH]cc(c34)C[C@H]21 (stereo partly drawn) [FCE 25068, 1-[[5(10→9)abeo-9,10-didehydro-6-methylergolin-8β-yl]methyl]-2,4-imidazolidinedione-N6-oxide] | 4.272 (3.256-5.514) mg.kg^-1 | > 800 mg/kg | – | –
4 | C[C@H](CS)C(=O)N1CCC[C@H]1C(=O)O [Captopril, captopril, reference compound] | – | – | 13.7 mg/kg | > 800 mg/kg
5 | CN1C[C@H](CN2CC(=O)NC2=O)C2=Cc3cccc4[nH]cc(c34)C[C@H]21 [FCE 24378, 1-[[5(10→9)abeo-9,10-didehydro-6-methylergolin-8β-yl]methyl]-2,4-imidazolidinedione] | 2.051 (1.180-2.971) mg.kg^-1 | > 800 mg/kg | – | –
